Laboratory results reported in ChEMBL document CHEMBL4402510, “Caprazamycins: Promising lead structures acting on a novel antibacterial target MraY” (Eur J Med Chem, 2019).
In brackets after ≈: the same amount, converted by molar mass.

How the values were obtained:
[1] = molecular target: T1, Phospho-N-acetylmuramoyl-pentapeptide-transferase (Aquifex aeolicus (strain VF5), UniProt O66465); assay: Inhibition of MraY in Aquifex aeolicus
T1 sequence (O66465 whole entry): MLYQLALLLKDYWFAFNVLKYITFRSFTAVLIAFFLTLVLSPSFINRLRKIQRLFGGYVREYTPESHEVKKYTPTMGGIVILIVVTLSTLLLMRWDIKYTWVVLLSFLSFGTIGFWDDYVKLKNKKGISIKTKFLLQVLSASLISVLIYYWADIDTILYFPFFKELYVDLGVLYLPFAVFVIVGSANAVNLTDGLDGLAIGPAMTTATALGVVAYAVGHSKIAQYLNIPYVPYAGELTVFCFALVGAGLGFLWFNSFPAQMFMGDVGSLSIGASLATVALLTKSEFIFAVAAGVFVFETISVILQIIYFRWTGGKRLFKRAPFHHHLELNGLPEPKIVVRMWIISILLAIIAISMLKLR

Enterococcus faecium [2] = assay: Antibacterial activity against Enterococcus faecium ATCC 19434; format: functional
Escherichia coli [3] = assay: Antibacterial activity against Escherichia coli ATCC 8730; format: functional
Citrobacter freundii = assay: Antibacterial activity against Citrobacter freundii ATCC 8090; format: functional
Pseudomonas aeruginosa [4] = assay: Antibacterial activity against Pseudomonas aeruginosa ATCC 27853; format: functional
Staphylococcus aureus [5] = assay: Antibacterial activity against methicillin resistant Staphylococcus aureus ATCC 43300; format: functional
Staphylococcus aureus [6] = assay: Antibacterial activity against Staphylococcus aureus ATCC 25923; format: functional
[7] = molecular target: T2, Phospho-N-acetylmuramoyl-pentapeptide-transferase (Bacillus subtilis (strain 168), UniProt Q03521); assay: Inhibition of MraY in Bacillus subtilis
T2 sequence (Q03521 whole entry): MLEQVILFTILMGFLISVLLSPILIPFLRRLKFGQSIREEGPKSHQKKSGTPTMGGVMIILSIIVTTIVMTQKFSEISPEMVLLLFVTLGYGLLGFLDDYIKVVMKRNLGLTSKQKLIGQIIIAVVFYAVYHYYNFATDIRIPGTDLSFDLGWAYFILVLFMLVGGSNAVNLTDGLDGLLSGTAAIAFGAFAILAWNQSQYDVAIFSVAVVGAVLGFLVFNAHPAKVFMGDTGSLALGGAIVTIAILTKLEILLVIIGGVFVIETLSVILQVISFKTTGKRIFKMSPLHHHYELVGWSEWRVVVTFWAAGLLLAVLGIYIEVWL

Acinetobacter baumannii = assay: Antibacterial activity against Acinetobacter baumannii ATCC 19606; format: functional; conditions: ATCC 19606 = CIP 70.34 = JCM 6841
Haemophilus influenzae = assay: Antibacterial activity against Haemophilus influenzae ATCC 10211; format: functional
Staphylococcus aureus [8] = assay: Antibacterial activity against methicillin resistant Staphylococcus aureus SR3637; format: functional
Enterococcus faecalis [9] = assay: Antibacterial activity against Enterococcus faecalis ATCC 29212; format: functional
Enterococcus faecium [10] = assay: Antibacterial activity against Enterococcus faecium SR7917 (VRE); format: functional
Staphylococcus aureus [11] = assay: Antibacterial activity against methicillin susceptible Staphylococcus aureus ATCC 29213; format: functional
Pseudomonas aeruginosa [12] = assay: Antibacterial activity against Pseudomonas aeruginosa PAO1 deltamexB; format: functional
Streptococcus pneumoniae = assay: Antibacterial activity against Streptococcus pneumoniae; format: functional
Pseudomonas aeruginosa [13] = assay: Antibacterial activity against Pseudomonas aeruginosa YY165; format: functional
[14] = molecular target: T3, Phospho-N-acetylmuramoyl-pentapeptide-transferase (Staphylococcus aureus, UniProt P0C1R8); assay: Inhibition of MraY in Staphylococcus aureus
T3 sequence (P0C1R8 whole entry): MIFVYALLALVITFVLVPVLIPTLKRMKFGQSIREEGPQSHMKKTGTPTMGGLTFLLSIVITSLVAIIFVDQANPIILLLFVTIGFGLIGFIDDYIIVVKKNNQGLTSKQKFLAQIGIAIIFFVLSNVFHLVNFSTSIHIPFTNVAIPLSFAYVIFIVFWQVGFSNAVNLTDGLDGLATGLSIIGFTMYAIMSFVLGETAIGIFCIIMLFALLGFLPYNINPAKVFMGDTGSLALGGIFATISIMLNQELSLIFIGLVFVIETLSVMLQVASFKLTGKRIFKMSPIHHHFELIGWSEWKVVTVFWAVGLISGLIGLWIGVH

Enterococcus faecalis [15] = assay: Antibacterial activity against Enterococcus faecalis SR7914 (VRE); format: functional
Escherichia coli [16] = assay: Antibacterial activity against Escherichia coli ATCC 25922; format: functional

SMILES	IC50 [1] [µM]	MIC (Enterococcus faecium [2]) [µg/mL]	MIC (Escherichia coli [3]) [µg/mL]	MIC (Citrobacter freundii) [µg/mL]	MIC (Pseudomonas aeruginosa [4]) [µg/mL]	MIC (Staphylococcus aureus [5]) [µg/mL]	MIC (Staphylococcus aureus [6]) [µg/mL]	MIC (Haemophilus influenzae) [µg/mL]	MIC (Enterococcus faecalis [9]) [µg/mL]	MIC (Enterococcus faecalis [15]) [µg/mL]	further results
CCCCCCCCCCc1cn(C[C@H](O[C@@H]2O[C@H](CN)[C@@H](O)[C@H]2O)[C@H]2O[C@@H](n3ccc(=O)[nH]c3=O)[C@H](O)[C@@H]2O)nn1	35	> 128	> 128	> 128	128 (≈ 215 µM)	64 (≈ 107 µM)	16 (≈ 26.8 µM)	–	–	–	–
NC[C@H]1O[C@@H](O[C@@H](c2cn(CCCCCOc3ccc(C(=O)c4ccccc4)cc3)nn2)[C@H]2O[C@@H](n3ccc(=O)[nH]c3=O)[C@H](O)[C@@H]2O)[C@H](O)[C@@H]1O	–	> 128	> 128	> 128	> 128	64 (≈ 90.3 µM)	> 128	–	–	–	IC50 [7]: 100 µM
NC[C@H]1O[C@@H](O[C@@H](Cn2cc(CCCCCCCCCCOc3ccc(C(=O)c4ccccc4)cc3)nn2)[C@H]2O[C@@H](n3ccc(=O)[nH]c3=O)[C@H](O)[C@@H]2O)[C@H](O)[C@@H]1O	25	128 (≈ 161 µM)	> 128	> 128	> 128	8 (≈ 10.1 µM)	16 (≈ 20.2 µM)	–	–	–	–
CC(=O)N[C@@H]1CCN[C@H]([C@H](O[C@@H]2O[C@H](CN)[C@@H](O)[C@H]2O)[C@H]2O[C@@H](n3ccc(=O)[nH]c3=O)[C@H](O)[C@@H]2O)C1	–	> 64	–	–	–	–	–	> 64	> 64	> 64	MIC (Acinetobacter baumannii): > 64 µg/mL; MIC (Staphylococcus aureus [8]): > 64 µg/mL; MIC (Enterococcus faecium [10]): > 64 µg/mL; MIC (Staphylococcus aureus [11]): > 64 µg/mL; MIC (Pseudomonas aeruginosa [12]): > 64 µg/mL; MIC (Streptococcus pneumoniae): > 64 µg/mL; MIC (Pseudomonas aeruginosa [13]): > 64 µg/mL; IC50 [14]: 2600 µM; MIC (Escherichia coli [16]): > 64 µg/mL
NC[C@H]1O[C@@H](O[C@@H](c2cn(Cc3ccc(COc4ccc(C(=O)c5ccccc5)cc4)cc3)nn2)[C@H]2O[C@@H](n3ccc(=O)[nH]c3=O)[C@H](O)[C@@H]2O)[C@H](O)[C@@H]1O	75	> 128	> 128	> 128	> 128	32 (≈ 43.1 µM)	> 128	–	–	–	IC50 [7]: 50 µM
NC[C@H]1O[C@@H](O[C@@H](Cc2cn(CCCCCCCCCCc3ccccc3)nn2)[C@H]2O[C@@H](n3ccc(=O)[nH]c3=O)[C@H](O)[C@@H]2O)[C@H](O)[C@@H]1O	20	64 (≈ 95.1 µM)	> 128	> 128	> 128	16 (≈ 23.8 µM)	32 (≈ 47.6 µM)	–	–	–	–
CCCCCCCCCCCCCCCC(=O)OC[C@@H]1[C@H](C(N)=O)[C@@H]([C@H]2O[C@@H](n3ccc(=O)[nH]c3=O)[C@H](O)[C@@H]2O)ON1CCCN	–	–	–	–	–	–	–	0.25 (≈ 0.382 µM)	16 (≈ 24.5 µM)	8 (≈ 12.2 µM)	–
CCCCCCCCCCCCCCCC(=O)OC[C@@H]1[C@H](C(=O)N(C)C)[C@@H]([C@H]2O[C@@H](n3ccc(=O)[nH]c3=O)[C@H](O)[C@@H]2O)ON1CCCN	–	–	–	–	–	–	–	0.5 (≈ 0.733 µM)	16 (≈ 23.5 µM)	4 (≈ 5.87 µM)	–
